Reference: ChEMBL document CHEMBL1649226, “Species identification and antifungal susceptibility patterns of species belonging to Aspergillus section Nigri” (2009)
Starred links: 1 amine or outer side, 2 acyl side, 3 side chain; linkers in the order of their positions; H or OH if unused. Positions of bridges follow the written chain, without caps; N, C: chain ends. Non-standard residues stand in square brackets, D forms with d. Residues, ends and D or L forms follow the SMILES beside them. *: point of attachment. hTyr(3S-OH,4S-OH,3'-OSO3H) = N[C@H](C(=O)O)[C@H](O)[C@@H](O)c1ccc(O)c(OS(=O)(=O)O)c1; Orn(4R-OH,5R-OH) = O=C([C@H](C[C@@H](O)[C@@H](O)N[*:3])N[*:1])[*:2]; Pro(3S-OH,4S-Me) = C[C@H]1CN[C@H](C(=O)O)[C@H]1O; X1 = CCCCCOc1ccc(-c2cc(-c3ccc(C(=O)*)cc3)no2)cc1; Gln(3R-OH) = NC(=O)C[C@@H](O)[C@H](N)C(=O)O; Hyp = O=C(O)[C@@H]1C[C@@H](O)CN1

Experiments:
Assay type in all cases: functional
Aspergillus niger [1] = test: Antifungal activity against Aspergillus niger isolate CM-4316 obtained from respiratory tract infection of patient assessed as inhibition of hyphal growth after 48 hrs; settings: isolate CM-4316, 48 h, read-out: MEC
Aspergillus niger [2] = test: Antifungal activity against Aspergillus niger isolate CM-3586 obtained from catheter of patient assessed as inhibition of hyphal growth after 48 hrs; settings: isolate CM-3586, 48 h, read-out: MEC
Aspergillus foetidus [3] = test: Antifungal activity against Aspergillus foetidus isolate CM-4995 obtained from prosthesis assessed as inhibition of hyphal growth after 48 hrs; settings: isolate CM-4995, 48 h, read-out: MEC
Aspergillus niger [4] = test: Antifungal activity against Aspergillus niger isolate CM-4004 obtained from assessed as inhibition of hyphal growth after 48 hrs; settings: isolate CM-4004, 48 h, read-out: MEC
Aspergillus tubingensis [5] = test: Antifungal activity against Aspergillus tubingensis isolate CM-4005 assessed as inhibition of hyphal growth after 48 hrs; settings: isolate CM-4005, 48 h, read-out: MEC
Aspergillus tubingensis [6] = test: Antifungal activity against Aspergillus tubingensis isolate CM-3177 obtained from respiratory tract infection of patient assessed as inhibition of hyphal growth after 48 hrs; settings: isolate CM-3177, 48 h, read-out: MEC
Aspergillus niger [7] = test: Antifungal activity against Aspergillus niger isolate CM-4262 obtained from Ophthalmic assessed as inhibition of hyphal growth after 48 hrs; settings: isolate CM-4262, 48 h, read-out: MEC
Aspergillus niger [8] = test: Antifungal activity against Aspergillus niger isolate CM-3636 obtained from respiratory tract infection of patient assessed as inhibition of hyphal growth after 48 hrs; settings: isolate CM-3636, 48 h, read-out: MEC
Aspergillus tubingensis [9] = test: Antifungal activity against Aspergillus tubingensis isolate CM-4899 obtained from respiratory tract infection of patient assessed as inhibition of hyphal growth after 48 hrs; settings: isolate CM-4899, 48 h, read-out: MEC
Aspergillus niger [10] = test: Antifungal activity against Aspergillus niger isolate CM-5095 obtained from respiratory tract infection of patient assessed as inhibition of hyphal growth after 48 hrs; settings: isolate CM-5095, 48 h, read-out: MEC
Aspergillus niger [11] = test: Antifungal activity against Aspergillus niger isolate CM-3257 obtained from respiratory tract infection of patient assessed as inhibition of hyphal growth after 48 hrs; settings: isolate CM-3257, 48 h, read-out: MEC
Aspergillus tubingensis [12] = test: Antifungal activity against Aspergillus tubingensis isolate CM-3810 obtained from respiratory tract infection of patient assessed as inhibition of hyphal growth after 48 hrs; settings: isolate CM-3810, 48 h, read-out: MEC
Aspergillus tubingensis [13] = test: Antifungal activity against Aspergillus tubingensis isolate CM-4897 obtained from blood culture assessed as inhibition of hyphal growth after 48 hrs; settings: isolate CM-4897, 48 h, read-out: MEC
Aspergillus tubingensis [14] = test: Antifungal activity against Aspergillus tubingensis isolate CM-3507 obtained from respiratory tract infection of patient assessed as inhibition of hyphal growth after 48 hrs; settings: isolate CM-3507, 48 h, read-out: MEC
Aspergillus niger [15] = test: Antifungal activity against Aspergillus niger isolate CM-3672 obtained from cutaneous layer of patient assessed as inhibition of hyphal growth after 48 hrs; settings: isolate CM-3672, 48 h, read-out: MEC
Aspergillus niger [16] = test: Antifungal activity against Aspergillus niger isolate CM-3506 obtained from respiratory tract infection of patient assessed as inhibition of hyphal growth after 48 hrs; settings: isolate CM-3506, 48 h, read-out: MEC
Aspergillus niger [17] = test: Antifungal activity against Aspergillus niger isolate CM-3641 obtained from respiratory tract infection of patient assessed as inhibition of hyphal growth after 48 hrs; settings: isolate CM-3641, 48 h, read-out: MEC
Aspergillus tubingensis [18] = test: Antifungal activity against Aspergillus tubingensis isolate CM-4352 obtained from respiratory tract infection of patient assessed as inhibition of hyphal growth after 48 hrs; settings: isolate CM-4352, 48 h, read-out: MEC
Aspergillus niger [19] = test: Antifungal activity against Aspergillus niger isolate CM-3551 obtained from respiratory tract infection of patient assessed as inhibition of hyphal growth after 48 hrs; settings: isolate CM-3551, 48 h, read-out: MEC
Aspergillus tubingensis [20] = test: Antifungal activity against Aspergillus tubingensis isolate CM-4003 assessed as inhibition of hyphal growth after 48 hrs; settings: isolate CM-4003, 48 h, read-out: MEC
Aspergillus tubingensis [21] = test: Antifungal activity against Aspergillus tubingensis isolate CM-4001 assessed as inhibition of hyphal growth after 48 hrs; settings: isolate CM-4001, 48 h, read-out: MEC
Aspergillus tubingensis [22] = test: Antifungal activity against Aspergillus tubingensis isolate CM-3585 assessed as inhibition of hyphal growth after 48 hrs; settings: isolate CM-3585, 48 h, read-out: MEC
Aspergillus niger [23] = test: Antifungal activity against Aspergillus niger isolate CM-4213 obtained from respiratory tract infection of patient assessed as inhibition of hyphal growth after 48 hrs; settings: isolate CM-4213, 48 h, read-out: MEC
Aspergillus tubingensis [24] = test: Antifungal activity against Aspergillus tubingensis isolate CM-4000 by broth dilution method assessed as inhibition of hyphal growth after 48 hrs; settings: isolate CM-4000, 48 h, read-out: MEC
Aspergillus tubingensis [25] = test: Antifungal activity against Aspergillus tubingensis isolate CM-3125 obtained from respiratory tract infection of patient assessed as inhibition of hyphal growth after 48 hrs; settings: isolate CM-3125, 48 h, read-out: MEC
Aspergillus tubingensis [26] = test: Antifungal activity against Aspergillus tubingensis isolate CM-5094 obtained from respiratory tract infection of patient assessed as inhibition of hyphal growth after 48 hrs; settings: isolate CM-5094, 48 h, read-out: MEC
Aspergillus niger [27] = test: Antifungal activity against Aspergillus niger isolate CM-3236 obtained from respiratory tract infection of patient assessed as inhibition of hyphal growth after 48 hrs; settings: isolate CM-3236, 48 h, read-out: MEC
Aspergillus foetidus [28] = test: Antifungal activity against Aspergillus foetidus isolate CM-4002 assessed as inhibition of hyphal growth after 48 hrs; settings: isolate CM-4002, 48 h, read-out: MEC
Aspergillus tubingensis [29] = test: Antifungal activity against Aspergillus tubingensis isolate CM-3654 obtained from blood culture assessed as inhibition of hyphal growth after 48 hrs; settings: isolate CM-3654, 48 h, read-out: MEC
Aspergillus tubingensis [30] = test: Antifungal activity against Aspergillus tubingensis isolate CM-4264 obtained from blood culture assessed as inhibition of hyphal growth after 48 hrs; settings: isolate CM-4264, 48 h, read-out: MEC
Aspergillus tubingensis [31] = test: Antifungal activity against Aspergillus tubingensis isolate CM-4688 obtained from respiratory tract infection of patient assessed as inhibition of hyphal growth after 48 hrs; settings: isolate CM-4688, 48 h, read-out: MEC
Aspergillus tubingensis [32] = test: Antifungal activity against Aspergillus tubingensis isolate CM-3123 obtained from respiratory tract infection of patient assessed as inhibition of hyphal growth after 48 hrs; settings: isolate CM-3123, 48 h, read-out: MEC
Aspergillus foetidus [33] = test: Antifungal activity against Aspergillus foetidus isolate CM-5264 obtained from respiratory tract infection of patient assessed as inhibition of hyphal growth after 48 hrs; settings: isolate CM-5264, 48 h, read-out: MEC
Aspergillus tubingensis [34] = test: Antifungal activity against Aspergillus tubingensis isolate CM-4296 obtained from respiratory tract infection of patient assessed as inhibition of hyphal growth after 48 hrs; settings: isolate CM-4296, 48 h, read-out: MEC

Compound	minimal effective concentration (Aspergillus niger [1]) [µg/mL]	minimal effective concentration (Aspergillus niger [2]) [µg/mL]	minimal effective concentration (Aspergillus foetidus [3]) [µg/mL]	minimal effective concentration (Aspergillus niger [4]) [µg/mL]	minimal effective concentration (Aspergillus tubingensis [5]) [µg/mL]	minimal effective concentration (Aspergillus tubingensis [6]) [µg/mL]	minimal effective concentration (Aspergillus niger [7]) [µg/mL]	minimal effective concentration (Aspergillus niger [8]) [µg/mL]	minimal effective concentration (Aspergillus tubingensis [9]) [µg/mL]	minimal effective concentration (Aspergillus niger [10]) [µg/mL]	minimal effective concentration (Aspergillus niger [11]) [µg/mL]	minimal effective concentration (Aspergillus tubingensis [12]) [µg/mL]	minimal effective concentration (Aspergillus tubingensis [13]) [µg/mL]	minimal effective concentration (Aspergillus tubingensis [14]) [µg/mL]	minimal effective concentration (Aspergillus niger [15]) [µg/mL]	minimal effective concentration (Aspergillus niger [16]) [µg/mL]	minimal effective concentration (Aspergillus niger [17]) [µg/mL]	minimal effective concentration (Aspergillus tubingensis [18]) [µg/mL]	minimal effective concentration (Aspergillus niger [19]) [µg/mL]	minimal effective concentration (Aspergillus tubingensis [20]) [µg/mL]	further results
CC[C@H](C)C[C@H](C)CCCCCCCCC(=O)N[C@H]1C[C@@H](O)[C@@H](NCCN)NC(=O)[C@@H]2[C@@H](O)CCN2C(=O)[C@H]([C@H](O)CCN)NC(=O)[C@H]([C@H](O)[C@@H](O)c2ccc(O)cc2)NC(=O)[C@@H]2C[C@@H](O)CN2C(=O)[C@H]([C@@H](C)O)NC1=O [CASPOFUNGIN]	0.25	1	0.14	0.1	0.5	0.05	0.13	0.25	0.1	0.25	0.25	0.5	0.1	0.06	0.15	0.15	0.5	0.15	0.03	0.25	minimal effective concentration (Aspergillus tubingensis [21]): 0.11 µg/mL; minimal effective concentration (Aspergillus tubingensis [22]): 0.37 µg/mL; minimal effective concentration (Aspergillus niger [23]): 0.39 µg/mL; minimal effective concentration (Aspergillus tubingensis [24]): 0.1 µg/mL; minimal effective concentration (Aspergillus tubingensis [25]): 0.05 µg/mL; minimal effective concentration (Aspergillus tubingensis [26]): 0.19 µg/mL; minimal effective concentration (Aspergillus niger [27]): 0.25 µg/mL; minimal effective concentration (Aspergillus foetidus [28]): 0.14 µg/mL; minimal effective concentration (Aspergillus tubingensis [29]): 0.14 µg/mL; minimal effective concentration (Aspergillus tubingensis [30]): 0.03 µg/mL; minimal effective concentration (Aspergillus tubingensis [31]): 0.18 µg/mL; minimal effective concentration (Aspergillus tubingensis [32]): 0.25 µg/mL; minimal effective concentration (Aspergillus foetidus [33]): 0.06 µg/mL; minimal effective concentration (Aspergillus tubingensis [34]): 0.25 µg/mL
CCCCCOc1ccc(-c2cc(-c3ccc(C(=O)N[C@H]4C[C@@H](O)[C@@H](O)NC(=O)[C@@H]5[C@@H](O)[C@@H](C)CN5C(=O)[C@H]([C@H](O)CC(N)=O)NC(=O)[C@H]([C@H](O)[C@@H](O)c5ccc(O)c(OS(=O)(=O)O)c5)NC(=O)[C@@H]5C[C@@H](O)CN5C(=O)[C@H]([C@@H](C)O)NC4=O)cc3)no2)cc1 [MICAFUNGIN] (X1-[Orn(4R-OH,5R-OH)]T[Hyp][hTyr(3S-OH,4S-OH,3'-OSO3H)][Gln(3R-OH)][Pro(3S-OH,4S-Me)]; lactam 1-C)	0.03	0.03	0.03	0.03	0.03	0.03	0.03	0.03	0.05	0.03	0.03	0.03	0.03	0.03	0.03	0.03	0.03	0.03	0.03	0.03	minimal effective concentration (Aspergillus tubingensis [21]): 0.03 µg/mL; minimal effective concentration (Aspergillus tubingensis [22]): 0.03 µg/mL; minimal effective concentration (Aspergillus niger [23]): 0.03 µg/mL; minimal effective concentration (Aspergillus tubingensis [24]): 0.03 µg/mL; minimal effective concentration (Aspergillus tubingensis [25]): 0.03 µg/mL; minimal effective concentration (Aspergillus tubingensis [26]): 0.03 µg/mL; minimal effective concentration (Aspergillus niger [27]): 0.03 µg/mL; minimal effective concentration (Aspergillus foetidus [28]): 0.03 µg/mL; minimal effective concentration (Aspergillus tubingensis [29]): 0.03 µg/mL; minimal effective concentration (Aspergillus tubingensis [30]): 0.03 µg/mL; minimal effective concentration (Aspergillus tubingensis [31]): 0.03 µg/mL; minimal effective concentration (Aspergillus tubingensis [32]): 0.03 µg/mL; minimal effective concentration (Aspergillus foetidus [33]): 0.03 µg/mL; minimal effective concentration (Aspergillus tubingensis [34]): 0.03 µg/mL
